Laboratory results from US20160333419A1, “GENE SIGNATURES ASSOCIATED WITH SENSITIVITY TO MDM2 INHIBITORS” (DAIICHI SANKYO COMPANY, LIMITED, priority 2014, published 2016).

Key:
Test in all cases: OncoPanel cytotoxicity assay
Type in all cases: cell-based
MHH-PREB-1 = settings: Homo sapiens, 72 hour incubation
Method in brief: (§1)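 Cells grown in RPMI 1640 with 10% FBS (or a special medium) at 37° C, 5% CO2 were treated 24 hours after seeding for 72 hours with 10 concentrations (3.16-fold dilutions, 0.1% DMSO final). Nuclei were dye-stained and imaged; IC50 was fit from percent of control relative cell count.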

SW1783 = settings: Homo sapiens, 72 hour incubation
Method in brief: as §1

SW-13 = settings: Homo sapiens, SW13, 72 hour incubation
Method in brief: as §1

HepG2 = settings: Homo sapiens, 72 hour incubation
Method in brief: as §1

HUH-6 Clone 5 = settings: Homo sapiens, HUH-6-clone5, 72 hour incubation
Method in brief: as §1

SW684 = settings: Homo sapiens, 72 hour incubation
Method in brief: as §1

MDA MB 231 = settings: Homo sapiens, 72 hour incubation
Method in brief: as §1

SNU-5 = settings: Homo sapiens, 72 hour incubation
Method in brief: as §1

HT-1080 = settings: Homo sapiens, 72 hour incubation
Method in brief: as §1

KHOS-240S = settings: Homo sapiens, 72 hour incubation
Method in brief: as §1

SW1088 = settings: Homo sapiens, 72 hour incubation
Method in brief: as §1

SK-NEP-1 = settings: Homo sapiens, 72 hour incubation
Method in brief: as §1

BE(2)C = settings: Homo sapiens, 72 hour incubation
Method in brief: as §1

Daudi = settings: Homo sapiens, 72 hour incubation
Method in brief: as §1

SK-MEL-1 = settings: Homo sapiens, 72 hour incubation
Method in brief: as §1

769-P = settings: Homo sapiens, 72 hour incubation
Method in brief: as §1

Thp1 = settings: Homo sapiens, THP-1, 72 hour incubation
Method in brief: as §1

RPMI 6666 = settings: Homo sapiens, 72 hour incubation
Method in brief: as §1

EFM-19 = settings: Homo sapiens, 72 hour incubation
Method in brief: as §1

SW900 = settings: Homo sapiens, 72 hour incubation
Method in brief: as §1

AsPC-1 = settings: Homo sapiens, ASPC1, 72 hour incubation
Method in brief: as §1

SCC-25 = settings: Homo sapiens, 72 hour incubation
Method in brief: as §1

DB = settings: Homo sapiens, 72 hour incubation
Method in brief: as §1

CHP-212 = settings: Homo sapiens, 72 hour incubation
Method in brief: as §1

DBTRG-05MG = settings: Homo sapiens, 72 hour incubation
Method in brief: as §1

SW1116 = settings: Homo sapiens, SW 1116, 72 hour incubation
Method in brief: as §1

CAL-62 = settings: Homo sapiens, 72 hour incubation
Method in brief: as §1

UM-UC-3 = settings: Homo sapiens, UMUC3, 72 hour incubation
Method in brief: as §1

MOLT-3 = settings: Homo sapiens, 72 hour incubation
Method in brief: as §1

MCF7 = settings: Homo sapiens, 72 hour incubation
Method in brief: as §1

MDA MB 468 = settings: Homo sapiens, 72 hour incubation
Method in brief: as §1

NCIH446 = settings: Homo sapiens, NCI-H446, 72 hour incubation
Method in brief: as §1

MOLT-16 = settings: Homo sapiens, 72 hour incubation
Method in brief: as §1

HT-29 = settings: Homo sapiens, 72 hour incubation
Method in brief: as §1

Colo 320 HSR = settings: Homo sapiens, 72 hour incubation
Method in brief: as §1

Wi38 = settings: Homo sapiens, WI-38, 72 hour incubation
Method in brief: as §1

DK-MG = settings: Homo sapiens, 72 hour incubation
Method in brief: as §1

LS-174T = settings: Homo sapiens, LS174T, 72 hour incubation
Method in brief: as §1

SMILES | IC50 (MHH-PREB-1) | IC50 (SW1783) | IC50 (SW-13) | IC50 (HepG2) | IC50 (HUH-6 Clone 5) | IC50 (SW684) | IC50 (MDA MB 231) | IC50 (SNU-5) | IC50 (HT-1080) | IC50 (KHOS-240S) | IC50 (SW1088) | IC50 (SK-NEP-1) | IC50 (BE(2)C) | IC50 (Daudi) | IC50 (SK-MEL-1) | IC50 (769-P) | IC50 (Thp1) | IC50 (RPMI 6666) | IC50 (EFM-19) | IC50 (SW900) | further results
CC[C@@H]1CNC2(CC2)CN1C(=O)[C@@H]1C[C@@H](F)CN1C(=O)C1=C(C(C)C)N2C(=N[C@@](C)(c3ccc(Cl)nc3)[C@H]2c2ccc(Cl)c(F)c2)S1 [Compound A, [(5R,6S)-5-(4-Chloro-3-fluorophenyl)-6-(6-chloropyridin-3-yl)-6-methyl-3-(propan-2-yl)-5,6-dihydroimidazo[2,1-b][1,3]thiazol-2-yl][(2S,4R)-2-{[(6R)-6-ethyl-4,7-diazaspiro[2.5]oct-7-yl]carbonyl}-4-fluoropyrrolidin-1-yl]methanone] | > 40000 nM | > 40000 nM | 8330 nM | 335 nM | 329 nM | > 40000 nM | > 40000 nM | > 40000 nM | 282 nM | > 40000 nM | > 40000 nM | > 40000 nM | 35300 nM | 599 nM | 207 nM | 442 nM | > 40000 nM | 1700 nM | > 40000 nM | > 40000 nM | IC50 (AsPC-1): > 40000 nM; IC50 (SCC-25): > 40000 nM; IC50 (DB): > 40000 nM; IC50 (CHP-212): 196 nM; IC50 (DBTRG-05MG): 132 nM; IC50 (SW1116): > 40000 nM; IC50 (CAL-62): > 40000 nM; IC50 (UM-UC-3): > 40000 nM; IC50 (MOLT-3): 605 nM; IC50 (MCF7): 661 nM; IC50 (MDA MB 468): 36200 nM; IC50 (NCIH446): > 40000 nM; IC50 (MOLT-16): 236 nM; IC50 (HT-29): 33500 nM; IC50 (Colo 320 HSR): > 40000 nM; IC50 (Wi38): 171 nM; IC50 (DK-MG): 645 nM; IC50 (LS-174T): 497 nM
CC1(C)CCC2(CC1)N[C@@H](C(=O)N[C@@H]1CC[C@@H](C(N)=O)OC1)[C@H](c1ccnc(Cl)c1F)[C@]21C(=O)Nc2cc(Cl)ccc21 [Compound B, (3′R,4′S,5′R)—N-[(3R,6S)-6-carbamoyltetrahydro-2H-pyran-3-yl]-6″-chloro-4′-(2-chloro-3-fluoropyridin-4-yl)-4,4-dimethyl-2″-oxo-1″,2″-dihydrodispiro[cyclohexane-1,2′-pyrrolidine-3′,3″-indole]-5′-carboxamide] | 8300 nM | > 10000 nM | 8450 nM | 58.4 nM | 71.9 nM | > 10000 nM | > 10000 nM | > 10000 nM | 62 nM | > 10000 nM | 9020 nM | > 10000 nM | 9030 nM | 132 nM | 29.3 nM | 36 nM | > 10000 nM | 79.3 nM | > 10000 nM | > 10000 nM | IC50 (AsPC-1): > 10000 nM; IC50 (SCC-25): 9860 nM; IC50 (DB): 5980 nM; IC50 (CHP-212): 29.4 nM; IC50 (DBTRG-05MG): 84.6 nM; IC50 (SW1116): > 10000 nM; IC50 (CAL-62): > 10000 nM; IC50 (UM-UC-3): > 10000 nM; IC50 (MOLT-3): 33.2 nM; IC50 (MCF7): 83.3 nM; IC50 (MDA MB 468): 8120 nM; IC50 (NCIH446): > 10000 nM; IC50 (MOLT-16): 59.8 nM; IC50 (HT-29): 5140 nM; IC50 (Colo 320 HSR): > 10000 nM; IC50 (Wi38): 37.9 nM; IC50 (DK-MG): 55.3 nM; IC50 (LS-174T): 61.5 nM
